Results: patent publication US12291518B2, “Thyroid hormone receptor agonists and use thereof” (Eccogene Inc., priority 2020, dated 2025)

What was measured:
[1] = target: T1, THR alpha-LBD (Homo sapiens, UniProt P10827); test: THR-α Coactivator Peptide Recruitment Assay (LanthaScreen TR-FRET); type: biochemical; settings: TR-FRET coactivator recruitment, THR alpha-LBD 0.25 nM; for EC50: read-out: THRα EC50
T1 construct: except that THR alpha-LBD of a final concentration 0.25 nM was used; purchased Invitrogen PV4687
How it was run: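 TR-FRET coactivator recruitment with THR alpha-LBD at 0.25 nM final, Fluorescein-SRC2-2 peptide 0.1 nM and Tb-labeled anti-GST antibody 2 nM; 2 h incubation at room temperature. 520/495 nm emission ratio fitted to a four-parameter sigmoidal curve to give EC50.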

[2] = target: T2, THR beta-LBD (Homo sapiens, UniProt P10828); test: THR-β Coactivator Peptide Recruitment Assay (LanthaScreen TR-FRET); type: biochemical; settings: TR-FRET coactivator recruitment, THR beta-LBD 0.5 nM; for EC50: read-out: THRβ EC50
T2 construct: THR beta-LBD (the final concentration is 0.5 nM) was added to the 384-well assay plate; purchased Invitrogen PV4686
T2 sequence (P10828 217-461 limits assumed): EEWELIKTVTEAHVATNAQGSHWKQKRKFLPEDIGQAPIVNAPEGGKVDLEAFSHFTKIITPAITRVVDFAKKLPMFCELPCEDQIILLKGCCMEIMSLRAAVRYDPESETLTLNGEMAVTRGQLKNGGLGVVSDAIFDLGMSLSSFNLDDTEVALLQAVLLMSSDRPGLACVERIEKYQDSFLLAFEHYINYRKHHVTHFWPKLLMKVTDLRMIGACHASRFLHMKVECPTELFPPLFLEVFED
How it was run: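 Agonist-driven coactivator recruitment read as a 520/495 nm TR-FRET emission ratio after 2 h at room temperature. Final concentrations: THR beta-LBD 0.5 nM, fluorescein-SRC2-2 peptide 0.1 nM, terbium anti-GST antibody 2 nM. EC50 from four-parameter dose-response fitting.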

T1 sequence (P10827 163-410 isoform P10827-2 limits assumed, other chains not shown): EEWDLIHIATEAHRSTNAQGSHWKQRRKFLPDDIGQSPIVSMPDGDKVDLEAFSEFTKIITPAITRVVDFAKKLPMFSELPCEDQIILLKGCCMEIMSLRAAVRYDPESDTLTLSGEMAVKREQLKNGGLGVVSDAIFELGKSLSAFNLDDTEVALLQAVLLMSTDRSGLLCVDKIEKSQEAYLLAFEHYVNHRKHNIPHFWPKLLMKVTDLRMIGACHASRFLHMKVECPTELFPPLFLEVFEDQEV

Which “THRα Emax” value [1] does the source give for `O=C(C1CC1)N1CC(NS(=O)(=O)c2cc(Oc3c(Cl)cc(-n4nc(C(F)F)c(=O)[nH]c4=O)cc3Cl)ccc2O)C1` [Compound 52, N-(1-(cyclopropanecarbonyl)azetidin-3-yl)-5-(2,6-dichloro-4-(6-(difluoromethyl)-3,5-dioxo-4,5-dihydro-1,2,4-triazin-2(3H)-yl)phenoxy)-2-hydroxybenzenesulfonamide] here?
The value was “B (40~85)”.

What about the EC50 [1] of the same molecule?
The EC50 was greater than 1000 nM.

And the “THRβ Emax” value [2]?
Its value is “B (75~90)”.

What about the EC50 [2] of the same molecule?
Its EC50 is 20 to 100 nM.

For `CN(C)C(=O)N1CC(NS(=O)(=O)c2cc(Oc3c(Cl)cc(-n4nc(C(F)F)c(=O)[nH]c4=O)cc3Cl)ccc2O)C1` [Compound 53, 3-((5-(2,6-dichloro-4-(6-(difluoromethyl)-3,5-dioxo-4,5-dihydro-1,2,4-triazin-2(3H)-yl)phenoxy)-2-hydroxyphenyl)sulfonamido)-N,N-dimethylazetidine-1-carboxamide], which “THRα Emax” value [1] is on record?
Its value is “B (40~85)”.

What about the EC50 [1] of the same molecule?
Its EC50 is greater than 1000 nM.

And the “THRβ Emax” value [2]?
Its value is “B (75~90)”.

What about the EC50 [2] of the same molecule?
Its EC50 is 2 to 20 nM.

Which “THRα Emax” value [1] does the source give for `CS(=O)(=O)N1CC(NS(=O)(=O)c2cc(Oc3c(Cl)cc(-n4nc(C(F)F)c(=O)[nH]c4=O)cc3Cl)ccc2O)C1` [Compound 54, 5-(2,6-dichloro-4-(6-(difluoromethyl)-3,5-dioxo-4,5-dihydro-1,2,4-triazin-2(3H)-yl)phenoxy)-2-hydroxy-N-(1-(methylsulfonyl)azetidin-3-yl)benzenesulfonamide] here?
The value was “B (40~85)”.

What about the EC50 [1] of the same molecule?
Its EC50 is 200 to 1000 nM.

And the “THRβ Emax” value [2]?
The value was “C (<75)”.

And the EC50 [2]?
The EC50 was 20 to 100 nM.

How did the “THRα Emax” value [1] turn out when `CCS(=O)(=O)N[C@H]1CCN(S(=O)(=O)c2cc(Oc3c(Cl)cc(-n4nc(C(F)F)c(=O)[nH]c4=O)cc3Cl)ccc2O)C1` [Compound 55, (S)-N-(1-((5-(2,6-dichloro-4-(6-(difluoromethyl)-3,5-dioxo-4,5-dihydro-1,2,4-triazin-2(3H)-yl)phenoxy)-2-hydroxyphenyl)sulfonyl)pyrrolidin-3-yl)ethanesulfonamide] was run?
The value was “B (40~85)”.

And the EC50 [1]?
The EC50 was 2 to 200 nM.

And the “THRβ Emax” value [2]?
Its value is “B (75~90)”.

And the EC50 [2]?
Its EC50 is less than 2 nM.

With `O=C(N[C@H]1CCN(S(=O)(=O)c2cc(Oc3c(Cl)cc(-n4nc(C(F)F)c(=O)[nH]c4=O)cc3Cl)ccc2O)C1)C1CC1` [Compound 56, (S)-N-(1-((5-(2,6-dichloro-4-(6-(difluoromethyl)-3,5-dioxo-4,5-dihydro-1,2,4-triazin-2(3H)-yl)phenoxy)-2-hydroxyphenyl)sulfonyl)pyrrolidin-3-yl)cyclopropanecarboxamide] as the molecule, how does the “THRα Emax” value [1] read?
Its value is “B (40~85)”.

And the EC50 [1]?
The EC50 was 2 to 200 nM.

And the “THRβ Emax” value [2]?
The value was “C (<75)”.

And the EC50 [2]?
The EC50 was less than 2 nM.

Which results are given for `CNC(=O)N1CC(NS(=O)(=O)c2cc(Oc3c(Cl)cc(-n4nc(C(F)F)c(=O)[nH]c4=O)cc3Cl)ccc2O)C1` [Compound 57, 3-((5-(2,6-dichloro-4-(6-(difluoromethyl)-3,5-dioxo-4,5-dihydro-1,2,4-triazin-2(3H)-yl)phenoxy)-2-hydroxyphenyl)sulfonamido)-N-methylazetidine-1-carboxamide]?
THRα Emax [1]: C (<40); EC50 [1]: > 1000 nM; THRβ Emax [2]: C (<75); EC50 [2]: 20 to 100 nM

For `NC(=O)CNS(=O)(=O)c1cc(Oc2c(Cl)cc(-n3nc(C(F)F)c(=O)[nH]c3=O)cc2Cl)ccc1O` [Compound 58, 2-((5-(2,6-dichloro-4-(6-(difluoromethyl)-3,5-dioxo-4,5-dihydro-1,2,4-triazin-2 (3H)-yl)phenoxy)-2-hydroxyphenyl)sulfonamido)acetamide], which “THRα Emax” value [1] is on record?
The value was “A (85~110)”.

And the EC50 [1]?
Its EC50 is 2 to 200 nM.

And the “THRβ Emax” value [2]?
Its value is “B (75~90)”.

What about the EC50 [2] of the same molecule?
The EC50 was less than 2 nM.

What does the source list for `O=C(CNS(=O)(=O)c1cc(Oc2c(Cl)cc(-n3nc(C(F)F)c(=O)[nH]c3=O)cc2Cl)ccc1O)NC1CC1` [Compound 59, N-cyclopropyl-2-((5-(2,6-dichloro-4-(6-(difluoromethyl)-3,5-dioxo-4,5-dihydro-1,2,4-triazin-2(3H)-yl)phenoxy)-2-hydroxyphenyl)sulfonamido)acetamide]?
THRα Emax [1]: B (40~85); EC50 [1]: 200 to 1000 nM; THRβ Emax [2]: A (90~110); EC50 [2]: 2 to 20 nM

How did the “THRα Emax” value [1] turn out when `CNC(=O)CNS(=O)(=O)c1cc(Oc2c(Cl)cc(-n3nc(C(F)F)c(=O)[nH]c3=O)cc2Cl)ccc1O` [Compound 60, 2-((5-(2,6-dichloro-4-(6-(difluoromethyl)-3,5-dioxo-4,5-dihydro-1,2,4-triazin-2(3H)-yl)phenoxy)-2-hydroxyphenyl)sulfonamido)-N-methylacetamide] was run?
The value was “B (40~85)”.

And the EC50 [1]?
Its EC50 is 2 to 200 nM.

What about the “THRβ Emax” value [2] of the same molecule?
The value was “B (75~90)”.

And the EC50 [2]?
Its EC50 is 2 to 20 nM.

How did the “THRα Emax” value [1] turn out when `CNC(=O)[C@H]1C[C@H](NS(=O)(=O)c2cc(Oc3c(Cl)cc(-n4nc(C(F)F)c(=O)[nH]c4=O)cc3Cl)ccc2O)C1` [Compound 61, (1r,3r)-3-((5-(2,6-dichloro-4-(6-(difluoromethyl)-3,5-dioxo-4,5-dihydro-1,2,4-triazin-2(3H)-yl)phenoxy)-2-hydroxyphenyl)sulfonamido)-N-methylcyclobutane-1-carboxamide] was run?
Its value is “B (40~85)”.

And the EC50 [1]?
The EC50 was greater than 1000 nM.

What about the “THRβ Emax” value [2] of the same molecule?
Its value is “B (75~90)”.

And the EC50 [2]?
Its EC50 is 2 to 20 nM.

With `O=C(CNS(=O)(=O)c1cc(Oc2c(Cl)cc(-n3nc(C(F)F)c(=O)[nH]c3=O)cc2Cl)ccc1O)NC1CCC1` [Compound 62, N-cyclobutyl-2-((5-(2,6-dichloro-4-(6-(difluoromethyl)-3,5-dioxo-4,5-dihydro-1,2,4-triazin-2(3H)-yl)phenoxy)-2-hydroxyphenyl)sulfonamido)acetamide] as the molecule, how does the “THRα Emax” value [1] read?
The value was “B (40~85)”.

What about the EC50 [1] of the same molecule?
The EC50 was 200 to 1000 nM.

What about the “THRβ Emax” value [2] of the same molecule?
The value was “B (75~90)”.

And the EC50 [2]?
The EC50 was 2 to 20 nM.

`O=C(CNS(=O)(=O)c1cc(Oc2c(Cl)cc(-n3nc(C(F)F)c(=O)[nH]c3=O)cc2Cl)ccc1O)N1CCC1` [Compound 63, N-[2-(azetidin-1-yl)-2-oxo-ethyl]-5-[2,6-dichloro-4-[6-(difluoromethyl)-3,5-dioxo-1,2,4-triazin-2-yl]phenoxy]-2-hydroxy-benzenesulfonamide] was tested. Which “THRα Emax” value [1] did it give?
Its value is “B (40~85)”.

And the EC50 [1]?
The EC50 was greater than 1000 nM.

And the “THRβ Emax” value [2]?
The value was “B (75~90)”.

What about the EC50 [2] of the same molecule?
Its EC50 is 20 to 100 nM.

What does the source list for `O=c1[nH]c(=O)n(-c2cc(Cl)c(Oc3cnc(O)c(S(=O)(=O)NC4CCC4)c3)c(Cl)c2)nc1C(F)F` [Compound 64, N-cyclobutyl-5-[2,6-dichloro-4-[6-(difluoromethyl)-3,5-dioxo-1,2,4-triazin-2-yl]phenoxy]-2-hydroxy-pyridine-3-sulfonamide]?
THRα Emax [1]: C (<40); EC50 [1]: > 1000 nM; THRβ Emax [2]: B (75~90); EC50 [2]: > 100 nM

For `COCCNS(=O)(=O)c1cc(Oc2c(Cl)cc(-n3nc(C(F)F)c(=O)[nH]c3=O)cc2Cl)ccc1O` [Compound 65, 5-[2,6-dichloro-4-[6-(difluoromethyl)-3,5-dioxo-1,2,4-triazin-2-yl]phenoxy]-2-hydroxy-N-(2-methoxyethyl) benzenesulfonamide], which “THRα Emax” value [1] is on record?
Its value is “B (40~85)”.

And the EC50 [1]?
The EC50 was 2 to 200 nM.

And the “THRβ Emax” value [2]?
Its value is “B (75~90)”.

What about the EC50 [2] of the same molecule?
Its EC50 is less than 2 nM.

Which “THRα Emax” value [1] does the source give for `O=c1[nH]c(=O)n(-c2cc(Cl)c(Oc3ccc(O)c(S(=O)(=O)N[C@@H]4CC[C@H](O)C4)c3)c(Cl)c2)nc1C(F)F` [Compound 66, 5-(2,6-dichloro-4-(6-(difluoromethyl)-3,5-dioxo-4,5-dihydro-1,2,4-triazin-2(3H)-yl)phenoxy)-2-hydroxy-N-((1R,3S)-3-hydroxycyclopentyl)benzenesulfonamide] here?
Its value is “B (40~85)”.

And the EC50 [1]?
Its EC50 is 2 to 200 nM.

And the “THRβ Emax” value [2]?
The value was “C (<75)”.

What about the EC50 [2] of the same molecule?
The EC50 was 2 to 20 nM.

Which “THRα Emax” value [1] does the source give for `O=c1[nH]c(=O)n(-c2cc(Cl)c(Oc3ccc(O)c(S(=O)(=O)N[C@H]4CC[C@@H](O)C4)c3)c(Cl)c2)nc1C(F)F` [Compound 67, 5-(2,6-dichloro-4-(6-(difluoromethyl)-3,5-dioxo-4,5-dihydro-1,2,4-triazin-2(3H)-yl)phenoxy)-2-hydroxy-N-((1S,3R)-3-hydroxycyclopentyl)benzenesulfonamide] here?
The value was “B (40~85)”.

What about the EC50 [1] of the same molecule?
The EC50 was 2 to 200 nM.

What about the “THRβ Emax” value [2] of the same molecule?
Its value is “B (75~90)”.

What about the EC50 [2] of the same molecule?
The EC50 was 2 to 20 nM.

Which results are given for `NS(=O)(=O)c1cc(Oc2c(Cl)cc(-n3nc(C(F)F)c(=O)[nH]c3=O)cc2Cl)ccc1O` [Compound 68, 5-[2,6-dichloro-4-[6-(difluoromethyl)-3,5-dioxo-1,2,4-triazin-2-yl]phenoxy]-2-hydroxy-benzene sulfonamide]?
THRα Emax [1]: A (85~110); EC50 [1]: 2 to 200 nM; THRβ Emax [2]: B (75~90); EC50 [2]: 2 to 20 nM

Which results are given for `N#C[C@H]1C[C@@H](NS(=O)(=O)c2cc(Oc3c(Cl)cc(-n4nc(C(F)F)c(=O)[nH]c4=O)cc3Cl)ccc2O)C1` [Compound 69, N-((1s,3s)-3-cyanocyclobutyl)-5-(2,6-dichloro-4-(6-(difluoromethyl)-3,5-dioxo-4,5-dihydro-1,2,4-triazin-2(3H)-yl)phenoxy)-2-hydroxybenzenesulfonamide]?
THRα Emax [1]: A (85~110); EC50 [1]: 2 to 200 nM; THRβ Emax [2]: A (90~110); EC50 [2]: < 2 nM

What does the source list for `O=c1[nH]c(=O)n(-c2cc(Cl)c(Oc3ccc(O)c(S(=O)(=O)NC4(CO)CC4)c3)c(Cl)c2)nc1C(F)F` [Compound 70, 5-(2,6-dichloro-4-(6-(difluoromethyl)-3,5-dioxo-4,5-dihydro-1,2,4-triazin-2(3H)-yl)phenoxy)-2-hydroxy-N-(1-(hydroxymethyl)cyclopropyl)benzenesulfonamide]?
THRα Emax [1]: B (40~85); EC50 [1]: 2 to 200 nM; THRβ Emax [2]: B (75~90); EC50 [2]: 2 to 20 nM
